Data reported in the supplement of paper PMC10307832.

What follows are cell lines tested with c1ccc2c(CCNc3ccc(Nc4ccncc4)cc3)c[nH]c2c1 [Serdemetan] + C[C@]1(O)C[C@@H](c2nc(-c3ccc4ccc(-c5ccccc5)nc4c3)c3c(N)nccn32)C1 [Linsitinib] (partner 1 µM) (assay: relative viability (nuclei count vs DMSO), 5 days (fraction); higher = more cells survive). Conditions: first compound 0.04 µM.
Summary of the method: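 For relative viability, nuclei counts in treated wells were divided by those in vehicle wells. Lung cancer cell lines had been pin-tool dosed in 1536-well plates the day after seeding and cultured for 5 days, then fixed and stained in one step (final 0.05% Triton X-100, 1% formaldehyde, 1 ug/ml Hoechst) and imaged at 4×. Doses were one drug alone or a fixed anchor-drug dose plus five library-drug doses (not always all listed) in √10 steps, and values are duplicate-plate medians.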

First: NCI-H727
Second: EBC-1
The relative viability of the first is lower: 0.286 for the first, 0.807 for the second.

First: NCI-H1703
Second: NCI-H1993
The relative viability of the first is lower: 0.515 for the first, 0.688 for the second.

First: SW 1573
Second: NCI-H838
The relative viability of the first is lower: 0.81 for the first, 0.995 for the second.

Compared with LCLC-103H, NCI-H520 is higher in relative viability: 0.81 for the first, 0.973 for the second.

First: NCI-H2126
Second: EMC-BAC-2
The relative viability of the first is lower: 0.745 for the first, 0.802 for the second.

First: NCI-H2085
Second: Calu-6
The relative viability of the first is higher: 0.939 for the first, 0.895 for the second.

Going from HCC-366 to NCI-H1666, the relative viability rises from 0.731 to 0.944.

Compared with NCI-H596, LK-2 is lower in relative viability: 1.14 for the first, 0.48 for the second.

Compared with NCI-H2087, SK-MES-1 is higher in relative viability: 0.907 for the first, 0.964 for the second.

First: H3255
Second: COR-L23
The relative viability of the first is higher: 0.938 for the first, 0.906 for the second.

First: COR-L 105
Second: IA-LM
The relative viability of the first is higher: 0.86 for the first, 0.549 for the second.

Going from LOU-NH91 to NCI-H2405, the relative viability falls from 0.962 to 0.864.

Compared with HOP-62, HCC-44 is lower in relative viability: 1.02 for the first, 0.637 for the second.

Compared with A549, LU99A is lower in relative viability: 0.595 for the first, 0.501 for the second.

First: BEN
Second: HCC-78
The relative viability of the first is higher: 0.857 for the first, 0.505 for the second.

Compared with NCI-H1299, NCI-H1563 is higher in relative viability: 0.923 for the first, 1.13 for the second.

ABC-1 showed a relative viability of 0.85.

Same assay, conditions: first compound 0.1265 µM

Going from NCI-H727 to EBC-1, the relative viability rises from 0.238 to 0.904.

Compared with NCI-H1703, NCI-H1993 is lower in relative viability: 1.04 for the first, 0.648 for the second.

Compared with SW 1573, NCI-H838 is higher in relative viability: 0.769 for the first, 1.04 for the second.

Going from LCLC-103H to NCI-H520, the relative viability falls from 1.06 to 1.02.

First: NCI-H2126
Second: EMC-BAC-2
The relative viability of the first is lower: 0.736 for the first, 0.753 for the second.

First: NCI-H2085
Second: Calu-6
The relative viability of the first is lower: 0.901 for the first, 0.962 for the second.

Going from HCC-366 to NCI-H1666, the relative viability rises from 0.317 to 0.85.

Going from NCI-H596 to LK-2, the relative viability falls from 1.04 to 0.545.

Compared with NCI-H2087, SK-MES-1 is higher in relative viability: 0.842 for the first, 1.2 for the second.

Compared with H3255, COR-L23 is lower in relative viability: 0.832 for the first, 0.752 for the second.

Going from COR-L 105 to IA-LM, the relative viability falls from 1.14 to 0.679.

Compared with LOU-NH91, NCI-H2405 is lower in relative viability: 1.01 for the first, 0.997 for the second.

Going from HOP-62 to HCC-44, the relative viability falls from 0.934 to 0.634.

Going from A549 to LU99A, the relative viability falls from 0.578 to 0.481.

Compared with BEN, HCC-78 is lower in relative viability: 0.929 for the first, 0.525 for the second.

First: NCI-H1299
Second: NCI-H1563
The relative viability of the first is lower: 0.999 for the first, 1.03 for the second.

Cell Line ABC-1 has a relative viability of 0.87.

Same assay, conditions: first compound 0.4 µM

Compared with NCI-H727, EBC-1 is higher in relative viability: 0.28 for the first, 0.952 for the second.

Going from NCI-H1703 to NCI-H1993, the relative viability falls from 0.765 to 0.677.

Going from SW 1573 to NCI-H838, the relative viability rises from 0.738 to 0.961.

Going from LCLC-103H to NCI-H520, the relative viability falls from 1.09 to 0.817.

Compared with NCI-H2126, EMC-BAC-2 is higher in relative viability: 0.638 for the first, 0.787 for the second.

Compared with NCI-H2085, Calu-6 is higher in relative viability: 0.836 for the first, 0.958 for the second.

Going from HCC-366 to NCI-H1666, the relative viability rises from 0.244 to 0.761.

Going from NCI-H596 to LK-2, the relative viability falls from 0.789 to 0.527.

Compared with NCI-H2087, SK-MES-1 is higher in relative viability: 0.945 for the first, 1.03 for the second.

First: H3255
Second: COR-L23
The relative viability of the first is higher: 0.931 for the first, 0.891 for the second.

Compared with COR-L 105, IA-LM is lower in relative viability: 0.847 for the first, 0.537 for the second.

Compared with NCI-H2405, HOP-62 is higher in relative viability: 0.964 for the first, 0.968 for the second.

First: HCC-44
Second: A549
The relative viability of the first is lower: 0.598 for the first, 0.631 for the second.

Compared with LU99A, BEN is higher in relative viability: 0.421 for the first, 0.956 for the second.

Compared with HCC-78, NCI-H1299 is higher in relative viability: 0.542 for the first, 0.969 for the second.

Going from NCI-H1563 to ABC-1, the relative viability falls from 0.94 to 0.738.

Same assay, conditions: first compound 1.265 µM

First: NCI-H727
Second: EBC-1
The relative viability of the first is lower: 0.124 for the first, 0.794 for the second.

Compared with NCI-H1703, SW 1573 is lower in relative viability: 0.654 for the first, 0.346 for the second.

Compared with NCI-H838, LCLC-103H is lower in relative viability: 0.989 for the first, 0.918 for the second.

First: NCI-H520
Second: NCI-H2126
The relative viability of the first is higher: 0.808 for the first, 0.642 for the second.

First: EMC-BAC-2
Second: NCI-H2085
The relative viability of the first is higher: 0.755 for the first, 0.621 for the second.

Going from Calu-6 to HCC-366, the relative viability falls from 0.913 to 0.0612.

First: NCI-H1666
Second: NCI-H596
The relative viability of the first is higher: 0.784 for the first, 0.623 for the second.

First: LK-2
Second: NCI-H2087
The relative viability of the first is lower: 0.49 for the first, 0.608 for the second.

Compared with SK-MES-1, H3255 is higher in relative viability: 0.796 for the first, 1.03 for the second.

Going from COR-L23 to COR-L 105, the relative viability rises from 0.688 to 1.04.

First: IA-LM
Second: LOU-NH91
The relative viability of the first is lower: 0.394 for the first, 0.894 for the second.

Going from NCI-H2405 to HOP-62, the relative viability falls from 0.897 to 0.738.

Going from HCC-44 to A549, the relative viability falls from 0.426 to 0.42.

Going from LU99A to BEN, the relative viability rises from 0.158 to 0.875.

Compared with HCC-78, NCI-H1299 is higher in relative viability: 0.499 for the first, 0.777 for the second.

First: NCI-H1563
Second: ABC-1
The relative viability of the first is higher: 1.06 for the first, 0.6 for the second.

Same assay, conditions: first compound 4 µM

Going from NCI-H727 to EBC-1, the relative viability rises from 0.191 to 0.634.

First: NCI-H1703
Second: NCI-H1993
The relative viability of the first is lower: 0.608 for the first, 0.713 for the second.

Going from SW 1573 to NCI-H838, the relative viability rises from 0.258 to 1.17.

Going from LCLC-103H to NCI-H520, the relative viability falls from 0.778 to 0.774.

Going from NCI-H2126 to EMC-BAC-2, the relative viability falls from 0.686 to 0.613.

Compared with NCI-H2085, Calu-6 is higher in relative viability: 0.581 for the first, 0.698 for the second.

Going from HCC-366 to NCI-H1666, the relative viability rises from 0.0456 to 0.724.

Going from NCI-H596 to LK-2, the relative viability falls from 0.541 to 0.491.

First: NCI-H2087
Second: SK-MES-1
The relative viability of the first is lower: 0.505 for the first, 0.674 for the second.

Going from H3255 to COR-L23, the relative viability falls from 0.814 to 0.788.

Going from COR-L 105 to IA-LM, the relative viability falls from 0.845 to 0.388.

Going from LOU-NH91 to NCI-H2405, the relative viability falls from 0.83 to 0.628.

Going from HOP-62 to HCC-44, the relative viability falls from 0.47 to 0.424.

Going from A549 to LU99A, the relative viability falls from 0.179 to 0.162.

First: BEN
Second: HCC-78
The relative viability of the first is higher: 0.679 for the first, 0.257 for the second.
